From patent publication US8927500B2, “Peptidomimetic macrocycles” (Aileron Therapeutics, Inc., priority 2012, dated 2015) come the findings set out here.

The target in one assay is MDM2 (Homo sapiens, UniProt Q00987). As to the kind of experiment: Competitive fluorescence polarization assay for MDM2. It is filed as binding. For orientation: In fluorescence polarisation assays a small probe gives low polarisation when free and higher when bound to something large.
The target in the next assay is T1, MDMX (Homo sapiens, UniProt O15151).
T1 sequence (O15151 1-125): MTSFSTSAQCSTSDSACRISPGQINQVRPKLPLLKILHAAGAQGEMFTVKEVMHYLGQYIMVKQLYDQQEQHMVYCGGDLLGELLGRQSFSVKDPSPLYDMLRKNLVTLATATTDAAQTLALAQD
As to the kind of experiment: Competitive fluorescence polarization assay for MDMX. It is filed as binding. The following applies: competitive FP assay; for IC50: read-out: IC50 (MDMX).

Setting [1] is: competitive FP assay, MDM2, read-out: IC50 (MDM2).
The mark [2] stands for this setting: competitive FP assay, MDM2, read-out: Ki (MDM2).

Read-outs that look alike come from different tables or passages of the source. Where a SMILES comes first, the peptide text is derived from it. Bridges are numbered along the chain shown (N, C = ends). [ ]: non-standard residue; d: D form. dPhe(4-CF3) = N[C@H](Cc1ccc(C(F)(F)F)cc1)C(=O)O; Phe(4-COOH) = N[C@@H](Cc1ccc(C(=O)O)cc1)C(=O)O; R8 = C=CCCCCCC[C@@](C)(N)C(=O)O; S8 = C=CCCCCCC[C@](C)(N)C(=O)O; Cba = N[C@@H](CC1CCC1)C(=O)O; R5 = C=CCCC[C@@](C)(N)C(=O)O; hLeu = CC(C)CC[C@H](N)C(=O)O; S5 = C=CCCC[C@](C)(N)C(=O)O; Nle = CCCC[C@H](N)C(=O)O

MDM2, sequence (Q00987 1-125): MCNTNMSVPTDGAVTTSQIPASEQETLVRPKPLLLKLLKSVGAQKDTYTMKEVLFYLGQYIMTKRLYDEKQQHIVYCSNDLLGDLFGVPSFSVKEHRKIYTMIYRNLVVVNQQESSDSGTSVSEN

With `CC(=O)N[C@@H](CC(C)C)C(=O)N[C@H](C(=O)N[C@@H](Cc1cccc(Cl)c1)C(=O)N[C@]1(C)CCCCCCC=CCCC[C@@](C)(C(=O)N[C@@H](CO)C(=O)N[C@@H](C)C(=O)N[C@@H](C)C(N)=O)NC(=O)[C@H](CC(C)C)NC(=O)[C@H](CCC(N)=O)NC(=O)[C@H](C)NC(=O)[C@H](Cc2c[nH]c3ccccc23)NC(=O)[C@H](Cc2ccc(O)cc2)NC(=O)[C@H](CCC(=O)O)NC1=O)[C@@H](C)O` (single isomer, unassigned) [compound 156], the values for the IC50 at MDM2 (setting [1]) and at MDMX were under 10 nM and 100 to 1000 nM, respectively. Moreover, the values for the inhibitory constant (Ki) on MDM2 (setting [2]) and at MDMX (read-out: Ki (MDMX)) were under 10 nM and 10 to 100 nM, respectively.
`CC(=O)N[C@@H](CC(C)C)C(=O)N[C@H](C(=O)N[C@@H](Cc1ccccc1)C(=O)N[C@]1(C)CCCCCCC=CCCC[C@@](C)(C(=O)N[C@@H](CO)C(=O)N[C@@H](C)C(=O)N[C@@H](Cc2ccccc2)C(N)=O)NC(=O)[C@H](CC2CCC2)NC(=O)[C@H](CCC(N)=O)NC(=O)[C@H](C)NC(=O)[C@H](Cc2c[nH]c3ccccc23)NC(=O)[C@H](Cc2ccc(O)cc2)NC(=O)[C@H](CCC(=O)O)NC1=O)[C@@H](C)O` [compound 256] (Ac-LTF[R8]EYWAQ[Cba][S5]SAF-NH2; staple 4-11): the IC50 at MDM2 (setting [1]) and at MDMX was 10 to 100 nM throughout. Also, the inhibition constant (Ki) (usually a dissociation constant, usually derived from enzyme kinetics or from competition with a known ligand) on MDM2 (setting [2]) was under 10 nM; on MDMX (read-out: Ki (MDMX)) it was 10 to 100 nM.
As to `CCCC[C@H](NC(=O)[C@H](C)NC(=O)[C@H](C)NC(=O)C(C)(C)NC(=O)[C@H](CC(C)C)NC(=O)[C@H](CCC(N)=O)NC(=O)[C@H](C)NC(=O)[C@H](Cc1c[nH]c2ccccc12)NC(=O)[C@H](Cc1ccc(O)cc1)NC(=O)[C@H](C)NC(=O)C(C)(C)NC(=O)[C@H](Cc1ccccc1)NC(=O)[C@@H](NC(=O)[C@H](CC(C)C)NC(C)=O)[C@@H](C)O)C(=O)N[C@@H](C)C(N)=O` [compound 412], the figures for the half-maximal inhibitory concentration (IC50) on MDM2 (setting [1]) and at MDMX were under 10 nM and 10 to 100 nM, respectively. The Ki at MDM2 (setting [2]) and on MDMX (read-out: Ki (MDMX)) was under 10 nM in each case.
With `CC(=O)N[C@@H](CC(C)C)C(=O)N[C@H](C(=O)N[C@@H](Cc1ccccc1)C(=O)N[C@]1(C)CCCCCCC=CCCC[C@@](C)(C(=O)N[C@@H](C)C(=O)N[C@@H](C)C(=O)N[C@@H](C)C(=O)N[C@@H](C)C(=O)N[C@@H](C)C(=O)N[C@H](C)C(N)=O)NC(=O)[C@H](CC(C)C)NC(=O)[C@H](CO)NC(=O)[C@H](C)NC(=O)[C@H](Cc2c[nH]c3ccccc23)NC(=O)[C@H](Cc2ccc(O)cc2)NC(=O)[C@H](CCC(=O)O)NC1=O)[C@@H](C)O` [compound 610] (Ac-LTF[R8]EYWASL[S5]AAAAA[dA]-NH2; staple 4-11), the values for the Ki at MDM2 (setting [2]) and at MDMX (read-out: Ki (MDMX)) were under 10 nM and 10 to 100 nM, respectively.
`CC[C@H](C)[C@H](NC(=O)[C@H](C)NC(=O)[C@H](C)NC(=O)[C@]1(C)CCCC=CCCCCCC[C@@](C)(NC(=O)[C@H](Cc2ccccc2)NC(=O)[C@@H](NC(=O)[C@H](CC(C)C)NC(C)=O)[C@@H](C)O)C(=O)N[C@@H](C)C(=O)N[C@@H](Cc2ccc(C(=O)O)cc2)C(=O)N[C@@H](Cc2c[nH]c3ccccc23)C(=O)N[C@@H](C)C(=O)N[C@@H](CCC(N)=O)C(=O)N[C@@H](CC2CCC2)C(=O)N1)C(=O)N[C@H](C)C(N)=O` [compound 267] (Ac-LTF[R8]A[Phe(4-COOH)]WAQ[Cba][S5]AAI[dA]-NH2; staple 4-11): the half-inhibitory concentration (IC50) on MDM2 (setting [1]) and on MDMX was 10 to 100 nM in each case. Further, the inhibitory constant (Ki) at MDM2 (setting [2]) and at MDMX (read-out: Ki (MDMX)) was under 10 nM throughout.
As for `CC(=O)N[C@@H](CC(C)C)C(=O)N[C@H](C(=O)N[C@@H](Cc1ccccc1)C(=O)N[C@]1(C)CCCCCCC=CCCC[C@@](C)(C(=O)N[C@@H](CO)C(=O)O)NC(=O)[C@H](CC2CCC2)NC(=O)[C@H](CCC(N)=O)NC(=O)[C@H](C)NC(=O)[C@H](Cc2c[nH]c3ccccc23)NC(=O)[C@H](Cc2ccc(O)cc2)NC(=O)[C@H](CCC(=O)O)NC1=O)[C@@H](C)O` [compound 594] (Ac-LTF[R8]EYWAQ[Cba][S5]S-OH; staple 4-11), the inhibition constant Ki on MDM2 (setting [2]) and on MDMX (read-out: Ki (MDMX)) was under 10 nM throughout.
`CCCC[C@H](NC(=O)[C@H](C)NC(=O)[C@H](C)NC(=O)[C@]1(C)CCCC=CCCCCCC[C@@](C)(NC(=O)[C@H](Cc2ccc(F)c(F)c2)NC(=O)[C@@H](NC(=O)[C@H](CC(C)C)NC(C)=O)[C@@H](C)O)C(=O)N[C@@H](C)C(=O)N[C@@H](Cc2ccc(O)cc2)C(=O)N[C@@H](Cc2c[nH]c3ccccc23)C(=O)N[C@@H](C)C(=O)N[C@@H](CCC(N)=O)C(=O)N[C@@H](CCC(C)C)C(=O)N1)C(=O)N[C@@H](C)C(N)=O` (single isomer, unassigned) [compound 308]: the IC50 on MDM2 (setting [1]) and on MDMX was 100 to 1000 nM each time. Further, the Ki on MDM2 (setting [2]) and on MDMX (read-out: Ki (MDMX)) was 10 to 100 nM each time.
For the compound `CCCC[C@H](NC(=O)[C@H](C)NC(=O)[C@H](C)NC(=O)[C@]1(C)CCCC=CCCCCCC[C@@](C)(NC(=O)[C@H](Cc2ccccc2)NC(=O)[C@@H](NC(=O)[C@H](C)NC(C)=O)[C@@H](C)O)C(=O)N[C@@H](CCC(=O)O)C(=O)N[C@@H](Cc2ccc(O)cc2)C(=O)N[C@@H](Cc2c[nH]c3ccccc23)C(=O)N[C@@H](C)C(=O)N[C@@H](CCC(N)=O)C(=O)N[C@@H](CC(C)C)C(=O)N1)C(=O)N[C@@H](C)C(N)=O` [compound 370] (Ac-ATF[R8]EYWAQL[S5]AA[Nle]A-NH2; staple 4-11), the 50% inhibitory concentration (IC50) at MDM2 (setting [1]) and at MDMX was 10 to 100 nM throughout. For the same compound, the inhibitory constant (Ki) is under 10 nM on MDM2 (setting [2]) and 10 to 100 nM on MDMX (read-out: Ki (MDMX)).
Take `CCCC[C@H](NC(=O)[C@H](C)NC(=O)[C@H](C)NC(=O)[C@]1(C)CCCC=CCCCCCC[C@@](C)(NC(=O)[C@H](Cc2ccccc2)NC(=O)[C@@H](NC(=O)[C@H](CC(C)C)NC(=O)[C@H](C)NC(=O)[C@H](C)NC(C)=O)[C@@H](C)O)C(=O)N[C@@H](CCC(=O)O)C(=O)N[C@@H](Cc2ccc(O)cc2)C(=O)N[C@@H](Cc2c[nH]c3ccccc23)C(=O)N[C@@H](C)C(=O)N[C@@H](CCC(N)=O)C(=O)N[C@@H](CC(C)C)C(=O)N1)C(=O)N[C@@H](C)C(=O)N[C@@H](C)C(N)=O` [compound 379] (Ac-AALTF[R8]EYWAQL[S5]AA[Nle]AA-NH2; staple 6-13): the 50% inhibitory concentration (IC50) at MDM2 (setting [1]) and at MDMX was 10 to 100 nM each time. In addition, the Ki is under 10 nM at MDM2 (setting [2]) and 10 to 100 nM at MDMX (read-out: Ki (MDMX)).
For the compound `CCCC[C@H](NC(=O)[C@H](C)NC(=O)[C@H](C)NC(=O)[C@]1(C)CCCC=CCCCCCC[C@@](C)(NC(=O)[C@H](Cc2ccccc2)NC(=O)[C@@H](NC(=O)[C@H](CC(C)C)NC(=O)[C@H](C)NC(C)=O)[C@@H](C)O)C(=O)N[C@@H](CCC(=O)O)C(=O)N[C@@H](Cc2ccc(O)cc2)C(=O)N[C@@H](Cc2c[nH]c3ccccc23)C(=O)N[C@@H](C)C(=O)N[C@@H](CCC(N)=O)C(=O)N[C@@H](CCC(C)C)C(=O)N1)C(=O)N[C@@H](C)C(=O)N[C@@H](C)C(N)=O` [compound 382] (Ac-ALTF[R8]EYWAQ[hLeu][S5]AA[Nle]AA-NH2; staple 5-12), the IC50 at MDM2 (setting [1]) and at MDMX was 10 to 100 nM each time. Further, the inhibition constant (Ki) on MDM2 (setting [2]) and on MDMX (read-out: Ki (MDMX)) was under 10 nM in each case.
Consider `CC(=O)N[C@@H](C(=O)N[C@H](C)C(=O)N[C@H](Cc1c[nH]c2ccccc12)C(=O)N[C@H](Cc1ccc(O)cc1)C(=O)N[C@@]1(C)CCCCCCC=CCCC[C@](C)(C(=O)N[C@H](C)C(N)=O)NC(=O)[C@@H](CC(C)C)NC(=O)[C@@H](CC(C)C)NC(=O)[C@@H](CCCCN)NC(=O)[C@@H](CCC(=O)O)NC(=O)[C@@H](Cc2ccc(C(F)(F)F)cc2)NC(=O)[C@@H](CC(N)=O)NC1=O)[C@H](C)O` [compound 757] (Ac-[dT][dA][dW][dY][S8][dN][dPhe(4-CF3)][dE][dK][dL][dL][R5][dA]-NH2; staple 5-12), for which the IC50 (in general, the midpoint of a concentration-inhibition curve) on MDM2 (IC50 (MDM2)) was under 10 nM; at MDMX, over 1000 nM.
As to `CC[C@H](C)[C@H](NC(=O)[C@H](C)NC(=O)[C@H](C)NC(=O)[C@]1(C)CCCC=CCCCCCC[C@@](C)(NC(=O)[C@H](Cc2ccccc2)NC(=O)[C@@H](NC(=O)[C@H](CC(C)C)NC(=O)CN(C)C)[C@@H](C)O)C(=O)N[C@@H](CCC(=O)O)C(=O)N[C@@H](Cc2ccc(C(=O)O)cc2)C(=O)N[C@@H](Cc2c[nH]c3ccccc23)C(=O)N[C@@H](C)C(=O)N[C@@H](CCC(N)=O)C(=O)N[C@@H](CC2CCC2)C(=O)N1)C(=O)N[C@H](C)C(N)=O` (single isomer, unassigned) [compound 441], the half-maximal inhibitory concentration (IC50) at MDM2 (setting [1]) and on MDMX was under 10 nM each time. The inhibitory constant (Ki) at MDM2 (setting [2]) and on MDMX (read-out: Ki (MDMX)) was under 10 nM in each case.
`CCCC[C@H](NC(=O)[C@H](C)NC(=O)[C@H](CO)NC(=O)[C@]1(C)CCCC=CCCCCCC[C@@](C)(NC(=O)[C@H](Cc2ccccc2)NC(=O)[C@@H](NC(=O)[C@H](CC(C)C)NC(C)=O)[C@@H](C)O)C(=O)N[C@@H](CCC(=O)O)C(=O)N[C@@H](Cc2ccc(C(=O)O)cc2)C(=O)N[C@@H](Cc2c[nH]c3cc(Cl)ccc23)C(=O)N[C@@H](C)C(=O)N[C@@H](CCC(N)=O)C(=O)N[C@@H](CC2CCC2)C(=O)N1)C(=O)N[C@@H](C)C(N)=O` (single isomer, unassigned) [compound 334]: the half-maximal inhibitory concentration (IC50) at MDM2 (setting [1]) is under 10 nM; on MDMX it was 10 to 100 nM. The Ki at MDM2 (setting [2]) and at MDMX (read-out: Ki (MDMX)) was under 10 nM in each case.
Take `CC(=O)N[C@@H](CC(C)C)C(=O)N[C@H](C(=O)N[C@@H](Cc1ccccc1)C(=O)N[C@]1(C)CCCCCCC=CCCC[C@@](C)(C(=O)N[C@@H](C)C(=O)N[C@@H](C)C(=O)N[C@@H](C)C(=O)N[C@@H](C)C(=O)N[C@@H](C)C(=O)N[C@H](C)C(=O)O)NC(=O)[C@H](CC(C)C)NC(=O)[C@H](CCC(N)=O)NC(=O)[C@H](C)NC(=O)[C@H](Cc2c[nH]c3ccccc23)NC(=O)[C@H](Cc2ccc(O)cc2)NC(=O)[C@H](CCC(=O)O)NC1=O)[C@@H](C)O` (single isomer, unassigned) [compound 551]: the inhibition constant Ki at MDM2 (Ki (MDM2), competitive FP assay, MDM2) is under 10 nM; at MDMX (Ki (MDMX)), 10 to 100 nM.
